One molecule from article PMC6302903, “Protein and Chemical Determinants of BL-1249 Action and Selectivity for K2P Channels” (ACS Chemical Neuroscience, 2018) can be followed below.

The target in this test is TRAAK/EK-1_T (Mus musculus, UniProt O88454). Nature of the test: TEVC of C-terminal tail swap chimera TRAAK/EK-1_T. The conditions noted are these: Xenopus oocytes. The test is classed as cell-based. An excerpt:
Given the importance of the C-terminal tail for the BL-1249 response and the fact that the C-terminal tails of K2P2.1(TREK-1) and K2P4.1(TRAAK) vary substantially (17.6% sequence similarity, 13.5% identity), we wondered if these differences could contribute to the different potencies observed in K2P2.1(TREK-1) and K2P4.1(TRAAK) BL-1249 responses. To test this possibility, we made chimeras that swapped the C-terminal tail between K2P2.1(TREK-1) and K2P4.1(TRAAK), TREK-1/AAK_T and TRAAK/EK_T. […] Despite this modest change, it is clear that the C-terminal tail alone is not sufficient to endow the K2P4.1(TRAAK) core with a K2P2.1(TREK-1)-like BL-1249 response. […]
Xenopus laevis oocytes were harvested in accordance with UCSF IACUC protocol AN129690 and digested in calcium-free ND-96 (96 mM NaCl, 2 mM KCl, 3.8 mM MgCl2) immediately following harvest, as previously described.[6],[10] […] Defolliculated stage V–VI oocytes were injected with 0.2–6.0 ng of mRNA in 50 nL, and currents were recorded 24–48 h after injection. mRNA was synthesized from plasmid DNA using mMessage mMachine Kit (T7 promoter, Ambion, Life Technologies) and purified using RNEasy Kit (Qiagen). […] Once stabilized basal currents were recorded, compounds were perfused at various concentrations in standard ND96 and currents were allowed to increase to stabilization before recording final current. […]

Sequence of TRAAK/EK-1_T (O88454 1-255 limits assumed): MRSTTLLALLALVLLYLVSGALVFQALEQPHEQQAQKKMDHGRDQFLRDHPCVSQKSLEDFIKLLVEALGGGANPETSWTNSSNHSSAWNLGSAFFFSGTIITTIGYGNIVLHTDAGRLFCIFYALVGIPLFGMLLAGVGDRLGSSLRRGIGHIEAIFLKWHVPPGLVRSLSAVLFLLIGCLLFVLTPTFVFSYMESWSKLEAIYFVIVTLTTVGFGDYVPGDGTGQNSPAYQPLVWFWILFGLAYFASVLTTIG

What is called EC50 is the concentration needed to bring the measured effect to its halfway point. Low readings indicate higher potency in that assay, high ones lower potency in that assay. As for `c1ccc(-c2nnn[nH]2)c(Nc2cccc3c2CCCC3)c1` [BL-1249, (5,6,7,8-tetrahydro-naphthalen-1-yl)-[2-(1H-tetrazol-5-yl)-phenyl]-amine], the EC50 turned out to be 23 ± 4 µM and the “increase in sensitivity of TRAAK/EK-1_T relative to K2P4.1(TRAAK)” value is approximately 2 fold.
